Measured values as given in ChEMBL document CHEMBL3244164, “Synthesis and analgesic activity of 1,3-dihydro-3-(substituted phenyl)imidazo[4,5-b]pyridin-2-ones and 3-(substituted phenyl)-1,2,3-triazolo[4,5-b]pyridines” (J Med Chem, 1978).
Calls of active or inactive are those of the source.

Key:
[1] = tested on: Rattus norvegicus; test: Analgesic activity in Sprague-Dawley rat normal foot assessed as response threshold at 16 to 32 mg/kg, po; format: functional; details: dose mg/kg 16-32
[2] = tested on: Rattus norvegicus; test: Analgesic activity in Sprague-Dawley rat brewer's yeast treated foot assessed as response threshold at 8 to 16 mg/kg, po; format: functional; details: dose mg/kg 8-16
[3] = tested on: Rattus norvegicus; test: Antiinflammatory activity in Sprague-Dawley rat assessed as inhibition of carrageenan-induced paw edema at 30 mg/kg, po; format: functional
[4] = tested on: Rattus norvegicus; test: Antiarthritic activity in Lewis rat assessed as inhibition of adjuvant-induced paw swelling at 50 mg/kg, po qd for 13 days measured on day 14; format: functional
[5] = tested on: Rattus norvegicus; test: Analgesic activity in Sprague-Dawley rat normal foot assessed as response threshold at 8 to 16 mg/kg, po; format: functional; details: dose mg/kg 8-16
[6] = tested on: Rattus norvegicus; test: Analgesic activity in Sprague-Dawley rat brewer's yeast treated foot assessed as response threshold at 8 mg/kg, po; format: functional
[7] = tested on: Rattus norvegicus; test: Analgesic activity in Sprague-Dawley rat normal foot assessed as response threshold at 32 mg/kg, po; format: functional
[8] = tested on: Mus musculus; test: Analgesic activity in mouse assessed as withdrawal latency at 12.5 to 75 mg/kg, po by Haffner tail clamp method; format: functional, organism-based
[9] = tested on: Mus musculus; test: Analgesic activity in naloxone treated mouse assessed as withdrawal latency at 12.5 to 75 mg/kg, po; format: functional, organism-based
[10] = tested on: Rattus norvegicus; test: Analgesic activity in Sprague-Dawley rat assessed as increase in mean reaction time at 10 mg/kg, po after 4 hrs relative to control; format: functional
[11] = tested on: Rattus norvegicus; test: Analgesic activity in Sprague-Dawley rat hyperesthesia model inflamed foot assessed as mean pain reaction threshold at 10 mg/kg, po after 1 hr; format: functional
[12] = tested on: Rattus norvegicus; test: Analgesic activity in Sprague-Dawley rat assessed as increase in mean reaction time at 5 mg/kg, po after 3 hrs relative to control; format: functional
[13] = tested on: Rattus norvegicus; test: Analgesic activity in Sprague-Dawley rat assessed as increase in mean reaction time at 10 mg/kg, po after 2 hrs relative to control; format: functional
[14] = tested on: Rattus norvegicus; test: Analgesic activity in Sprague-Dawley rat assessed as increase in mean reaction time at 10 mg/kg, po after 5 hrs relative to control; format: functional
[15] = tested on: Rattus norvegicus; test: Analgesic activity in Sprague-Dawley rat assessed as increase in mean reaction time at 20 mg/kg, po after 4 hrs relative to control; format: functional
[16] = tested on: Rattus norvegicus; test: Analgesic activity in Sprague-Dawley rat assessed as increase in mean reaction time at 5 mg/kg, po after 2 hrs relative to control; format: functional
[17] = tested on: Rattus norvegicus; test: Analgesic activity in naloxone treated Sprague-Dawley rat hyperesthesia model inflamed foot assessed as mean pain reaction threshold at 10 mg/kg, po after 1 hr; format: functional
[18] = tested on: Rattus norvegicus; test: Analgesic activity in Sprague-Dawley rat hyperesthesia model inflamed foot assessed as mean pain reaction threshold at 20 mg/kg, po after 1 hr; format: functional
[19] = tested on: Rattus norvegicus; test: Analgesic activity in naloxone treated Sprague-Dawley rat hyperesthesia model inflamed foot assessed as mean pain reaction threshold at 20 mg/kg, po after 1 hr; format: functional
[20] = tested on: Rattus norvegicus; test: Analgesic activity in Sprague-Dawley rat hyperesthesia model normal foot assessed as mean pain reaction threshold at 5 mg/kg, po after 1 hr; format: functional
[21] = tested on: Rattus norvegicus; test: Analgesic activity in Sprague-Dawley rat assessed as increase in mean reaction time at 20 mg/kg, po after 1 hr relative to control; format: functional
[22] = tested on: Rattus norvegicus; test: Analgesic activity in naloxone treated Sprague-Dawley rat hyperesthesia model normal foot assessed as mean pain reaction threshold at 10 mg/kg, po after 1 hr; format: functional
[23] = tested on: Rattus norvegicus; test: Analgesic activity in Sprague-Dawley rat assessed as increase in mean reaction time at 20 mg/kg, po after 5 hrs relative to control; format: functional
[24] = tested on: Rattus norvegicus; test: Analgesic activity in Sprague-Dawley rat assessed as increase in mean reaction time at 10 mg/kg, po after 3 hrs relative to control; format: functional
[25] = tested on: Rattus norvegicus; test: Analgesic activity in naloxone treated Sprague-Dawley rat hyperesthesia model normal foot assessed as mean pain reaction threshold at 5 mg/kg, po after 1 hr; format: functional
[26] = tested on: Rattus norvegicus; test: Analgesic activity in Sprague-Dawley rat assessed as increase in mean reaction time at 5 mg/kg, po after 1 hr relative to control; format: functional
[27] = tested on: Rattus norvegicus; test: Analgesic activity in Sprague-Dawley rat hyperesthesia model inflamed foot assessed as mean pain reaction threshold at 5 mg/kg, po after 1 hr; format: functional
[28] = tested on: Rattus norvegicus; test: Analgesic activity in Sprague-Dawley rat assessed as increase in mean reaction time at 5 mg/kg, po after 5 hrs relative to control; format: functional
[29] = tested on: Rattus norvegicus; test: Analgesic activity in Sprague-Dawley rat hyperesthesia model normal foot assessed as mean pain reaction threshold at 10 mg/kg, po after 1 hr; format: functional
[30] = tested on: Rattus norvegicus; test: Analgesic activity in Sprague-Dawley rat assessed as increase in mean reaction time at 5 mg/kg, po after 4 hrs relative to control; format: functional
[31] = tested on: Rattus norvegicus; test: Analgesic activity in naloxone treated Sprague-Dawley rat hyperesthesia model inflamed foot assessed as mean pain reaction threshold at 5 mg/kg, po after 1 hr; format: functional
[32] = tested on: Rattus norvegicus; test: Analgesic activity in Sprague-Dawley rat assessed as increase in mean reaction time at 20 mg/kg, po after 2 hrs relative to control; format: functional
[33] = tested on: Rattus norvegicus; test: Analgesic activity in Sprague-Dawley rat assessed as increase in mean reaction time at 10 mg/kg, po after 1 hr relative to control; format: functional
[34] = tested on: Rattus norvegicus; test: Analgesic activity in Sprague-Dawley rat hyperesthesia model normal foot assessed as mean pain reaction threshold at 20 mg/kg, po after 1 hr; format: functional
[35] = tested on: Rattus norvegicus; test: Analgesic activity in Sprague-Dawley rat assessed as increase in mean reaction time at 20 mg/kg, po after 3 hrs relative to control; format: functional
[36] = tested on: Rattus norvegicus; test: Analgesic activity in naloxone treated Sprague-Dawley rat hyperesthesia model normal foot assessed as mean pain reaction threshold at 20 mg/kg, po after 1 hr; format: functional
[37] = tested on: Rattus norvegicus; test: Analgesic activity in Sprague-Dawley rat brewer's yeast treated foot assessed as response threshold at 16 to 32 mg/kg, po; format: functional; details: dose mg/kg 16-32

## Fc1ccc(-n2nnc3cccnc32)c(F)c1
[1]
  Activity: >40 mm
[2]
  Activity: >25 mm

## CCCCC1C(=O)N(c2ccccc2)N(c2ccccc2)C1=O [PHENYLBUTAZONE]
[3]
  inhibition in vivo at 30 mg/kg: 39%
[4]
  inhibition in vivo at 50 mg/kg: 78%

## CN1CC[C@]23c4c5ccc(O)c4O[C@H]2[C@@H](O)C=C[C@H]3[C@H]1C5 [MORPHINE]
[5]
  Activity: >50 mm
[6]
  Activity: >34 mm
[7]
  Activity: <40 mm

## O=c1n(-c2ccc3c(c2)OCO3)c2ncccc2n1C1CCCC1
[1]
  Activity: >40 mm
[2]
  Activity: >25 mm

## C=CCn1c(=O)n(-c2ccc3c(c2)OCO3)c2ncccc21 [listing 1 of 2 here]
[8]
  Activity: Active
[9]
  Activity: inactive

## CCCn1c(=O)n(-c2ccc3c(c2)OCO3)c2ncccc21
[5]
  Activity: >50 mm
[2]
  Activity: >25 mm

## CC(C)n1c(=O)n(-c2ccc3c(c2)OCO3)c2ncccc21
[5]
  Activity: >50 mm
[6]
  Activity: >34 mm

## C=CCn1c(=O)n(-c2ccc3c(c2)OCO3)c2ncccc21 [listing 2 of 2 here]
[10]
  Time: 7.1 s
[5]
  Activity: >50 mm
[11]
  Activity: 44.4 mmHg
[3]
  inhibition in vivo at 30 mg/kg: 42%
[12]
  Time: 5.3 s
[6]
  Activity: >34 mm
[13]
  Time: 7.3 s
[14]
  Time: 6.2 s
[15]
  Time: 28.1 s
[16]
  Time: 3.8 s
[17]
  Activity: 47.8 mmHg
[18]
  Activity: 74.4 mmHg
[4]
  inhibition in vivo at 50 mg/kg: 78.2%
[19]
  Activity: 66.6 mmHg
[20]
  Activity: 40.5 mmHg
[21]
  Time: 13.5 s
[22]
  Activity: 71.1 mmHg
[23]
  Time: 24.5 s
[24]
  Time: 11.6 s
[25]
  Activity: 38.4 mmHg
[26]
  Time: 0.1 s
[27]
  Activity: 28.8 mmHg
[28]
  Time: 0 s
[29]
  Activity: 52.3 mmHg
[30]
  Time: 3.9 s
[31]
  Activity: 33.4 mmHg
[32]
  Time: 21.7 s
[33]
  Time: 8.8 s
[34]
  Activity: 88.5 mmHg
[35]
  Time: 24.4 s
[36]
  Activity: 79.3 mmHg

## O=c1n(CC2CC2)c2cccnc2n1-c1ccc2c(c1)OCO2
[1]
  Activity: >40 mm
[37]
  Activity: >25 mm
